Measured values as given in patent publication US7300946B2, “N-(substituted arylmethyl)-4-(disubstituted methyl) piperidines and pyridines” (Bayer CropScience AG, priority 2002, dated 2007).

Test system: tobacco budworm (Heliothis virescens [Fabricius])
Assay: surface-treated diet test against the tobacco budworm
Type: in vivo
Settings: tobacco budworm second instar larvae, surface-treated diet, 0.25 millimoles of candidate insecticide on the surface of the diet, five-day exposure; for Percent Mortality: compared to total number of insects infested; for Percent Growth Inhibition: inhibition of insect weight relative to untreated controls
Outline: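 Wheat germ artificial diet surface-treated with 40 µL of 50 mM DMSO stock diluted 1:7 in 1:1 water/acetone (0.25 millimolar on diet), or sub-multiples for rate tests. One second-instar larva per well, 25° C, 60% RH, 5 days; percent weight inhibition vs DMSO controls and percent mortality.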

| Structure (SMILES) | Percent Mortality [%] | Percent Growth Inhibition [%] |
| --- | --- | --- |
| CC(C)(C)C(=O)Nc1ccc(CN2CCC(C(OC(=O)Nc3cc(F)cc(F)c3)c3ccc(C(F)(F)F)cc3)CC2)cc1 (stereo not shown) [Compound 497] | 17 | 100 |
| COC(=O)Nc1ccc(CN2CCC(C(OC(=O)Nc3cc(F)cc(F)c3)c3ccc(C(F)(F)F)cc3)CC2)cc1 (stereo not shown) [Compound 498] | 100 | 100 |
| CCOC(=O)Nc1ccc(CN2CCC(C(OC(=O)Nc3cc(F)cc(F)c3)c3ccc(C(F)(F)F)cc3)CC2)cc1 (stereo not shown) [Compound 499] | 100 | 100 |
| CC(C)OC(=O)Nc1ccc(CN2CCC(C(OC(=O)Nc3cccc(F)c3)c3ccc(Cl)cc3)CC2)cc1 (stereo not shown) [Compound 501] | 100 | 100 |
| CC(C)OC(=O)Nc1ccc(CN2CCC(C(OC(=O)Nc3cc(F)cc(F)c3)c3ccc(Cl)cc3)CC2)cc1 (stereo not shown) [Compound 502] | 100 | 100 |
| CC(C)OC(=O)Nc1ccc(CN2CCC(C(OC(=O)Nc3ccc(Cl)cc3)c3ccc(F)cc3)CC2)cc1 (stereo not shown) [Compound 503] | 100 | 100 |
| CC(C)OC(=O)Nc1ccc(CN2CCC(C(OC(=O)Nc3cccc(F)c3)c3ccc(F)cc3)CC2)cc1 (stereo not shown) [Compound 504] | 100 | 100 |
| CC(C)OC(=O)Nc1ccc(CN2CCC(C(OC(=O)Nc3cc(F)cc(F)c3)c3ccc(F)cc3)CC2)cc1 (stereo not shown) [Compound 505] | 100 | 100 |
| CC(C)OC(=O)Nc1ccc(CN2CCC(C(OC(=O)Nc3ccc(Cl)cc3)c3ccc(Cl)cc3Cl)CC2)cc1 (stereo not shown) [Compound 506] | 100 | 100 |
| CC(C)OC(=O)Nc1ccc(CN2CCC(C(OC(=O)Nc3cc(F)cc(F)c3)c3ccc(Cl)cc3Cl)CC2)cc1 (stereo not shown) [Compound 507] | 100 | 100 |
| CC(C)OC(=O)Nc1ccc(CN2CCC(C(OC(=O)Nc3ccc(Cl)cc3)c3cc(Cl)cc(Cl)c3)CC2)cc1 (stereo not shown) [Compound 508] | 100 | 100 |
| CC(C)OC(=O)Nc1ccc(CN2CCC(C(OC(=O)Nc3cccc(F)c3)c3cc(Cl)cc(Cl)c3)CC2)cc1 (stereo not shown) [Compound 509] | 100 | 100 |
| CC(C)OC(=O)Nc1ccc(CN2CCC(C(OC(=O)Nc3cc(F)cc(F)c3)c3cc(Cl)cc(Cl)c3)CC2)cc1 (stereo not shown) [Compound 510] | 100 | 100 |
| CC(C)OC(=O)Nc1ccc(CN2CCC(C(OC(=O)Nc3cc(F)cc(F)c3)c3ccc(C(F)(F)F)cc3)CC2)cc1 (stereo not shown) [Compound 512] | 100 | 100 |
| CC(C)OC(=O)Nc1ccc(CN2CCC(C(OC(=O)Nc3ccc(Cl)cc3)c3ccc(OC(F)(F)F)cc3)CC2)cc1 (stereo not shown) [Compound 513] | 100 | 100 |
| CC(C)OC(=O)Nc1ccc(CN2CCC(C(OC(=O)Nc3cccc(F)c3)c3ccc(OC(F)(F)F)cc3)CC2)cc1 (stereo not shown) [Compound 514] | 100 | 100 |
| CC(C)OC(=O)Nc1ccc(CN2CCC(C(OC(=O)Nc3cc(F)cc(F)c3)c3ccc(OC(F)(F)F)cc3)CC2)cc1 (stereo not shown) [Compound 515] | 100 | 100 |
| COC(=O)N(c1ccc(CN2CCC(C(OC(=O)Nc3cc(F)cc(F)c3)c3ccc(C(F)(F)F)cc3)CC2)cc1)c1ccccn1 (stereo not shown) [Compound 516] | 100 | 100 |
| CCNC(=O)Nc1ccc(CN2CCC(C(OC(=O)Nc3cc(F)cc(F)c3)c3ccc(C(F)(F)F)cc3)CC2)cc1 (stereo not shown) [Compound 517] | 0 | 86 |
| CCNC(=S)Nc1ccc(CN2CCC(C(OC(=O)Nc3cc(F)cc(F)c3)c3ccc(C(F)(F)F)cc3)CC2)cc1 (stereo not shown) [Compound 518] | 17 | 96 |
| CN(C)C(=O)Nc1ccc(CN2CCC(C(OC(=O)Nc3cc(F)cc(F)c3)c3ccc(C(F)(F)F)cc3)CC2)cc1 (stereo not shown) [Compound 519] | 17 | 93 |
| CNC(=O)Oc1ccc(CN2CCC(C(OC(=O)Nc3ccccc3)c3ccc(C(F)(F)F)cc3)CC2)cc1 (stereo not shown) [Compound 521] | 100 | 100 |

| Structure (SMILES) | Percent Mortality [%] | Percent Growth Inhibition [%] |
| --- | --- | --- |
| CCON=Cc1ccc(CN2CCC(C(OC(=O)Nc3ccc(Cl)cc3)c3ccc(Cl)cc3)CC2)cc1 (stereo not shown) [Compound 523] | 100 | 100 |
| CCON=Cc1ccc(CN2CCC(C(OC(=O)Nc3cccc(F)c3)c3ccc(Cl)cc3)CC2)cc1 (stereo not shown) [Compound 524] | 100 | 100 |
| CCON=Cc1ccc(CN2CCC(C(OC(=O)Nc3cc(F)cc(F)c3)c3ccc(Cl)cc3)CC2)cc1 (stereo not shown) [Compound 525] | 100 | 100 |
| CCON=Cc1ccc(CN2CCC(C(OC(=O)Nc3ccc(Cl)cc3)c3ccc(F)cc3)CC2)cc1 (stereo not shown) [Compound 526] | 100 | 100 |
| CCON=Cc1ccc(CN2CCC(C(OC(=O)Nc3cccc(F)c3)c3ccc(F)cc3)CC2)cc1 (stereo not shown) [Compound 527] | 100 | 100 |
| CCON=Cc1ccc(CN2CCC(C(OC(=O)Nc3cc(F)cc(F)c3)c3ccc(F)cc3)CC2)cc1 (stereo not shown) [Compound 528] | 100 | 100 |
| CCON=Cc1ccc(CN2CCC(C(OC(=O)Nc3ccc(Cl)cc3)c3ccc(Cl)cc3Cl)CC2)cc1 (stereo not shown) [Compound 529] | 100 | 100 |
| CCON=Cc1ccc(CN2CCC(C(OC(=O)Nc3cccc(F)c3)c3ccc(Cl)cc3Cl)CC2)cc1 (stereo not shown) [Compound 530] | 100 | 100 |
| CCON=Cc1ccc(CN2CCC(C(OC(=O)Nc3cc(F)cc(F)c3)c3ccc(Cl)cc3Cl)CC2)cc1 (stereo not shown) [Compound 531] | 100 | 100 |
| CCON=Cc1ccc(CN2CCC(C(OC(=O)Nc3ccc(Cl)cc3)c3cc(Cl)cc(Cl)c3)CC2)cc1 (stereo not shown) [Compound 532] | 100 | 100 |
| CCON=Cc1ccc(CN2CCC(C(OC(=O)Nc3cccc(F)c3)c3cc(Cl)cc(Cl)c3)CC2)cc1 (stereo not shown) [Compound 533] | 100 | 100 |
| CCON=Cc1ccc(CN2CCC(C(OC(=O)Nc3cc(F)cc(F)c3)c3cc(Cl)cc(Cl)c3)CC2)cc1 (stereo not shown) [Compound 534] | 100 | 100 |
| CCON=Cc1ccc(CN2CCC(C(OC(=O)Nc3cccc(F)c3)c3ccc(C(F)(F)F)cc3)CC2)cc1 (stereo not shown) [Compound 535] | 100 | 100 |
| CCON=Cc1ccc(CN2CCC(C(OC(=O)N(C)c3ccccc3)c3ccc(C(F)(F)F)cc3)CC2)cc1 (stereo not shown) [Compound 536] | 100 | 100 |
| CCON=Cc1ccc(CN2CCC(C(OC(=O)Nc3ccc(Cl)cc3)c3ccc(OC(F)(F)F)cc3)CC2)cc1 (stereo not shown) [Compound 537] | 100 | 100 |
| CCON=Cc1ccc(CN2CCC(C(OC(=O)Nc3cc(F)cc(F)c3)c3ccc(OC(F)(F)F)cc3)CC2)cc1 (stereo not shown) [Compound 538] | 100 | 100 |
| C#CCON=Cc1ccc(CN2CCC(C(OC(=O)Nc3ccc(Cl)cc3)c3ccc(C(F)(F)F)cc3)CC2)cc1 (stereo not shown) [Compound 539] | 100 | 100 |
| C#CCON=Cc1ccc(CN2CCC(C(OC(=O)Nc3cc(F)cc(F)c3)c3ccc(C(F)(F)F)cc3)CC2)cc1 (stereo not shown) [Compound 540] | 100 | 100 |
| CCN(CC)S(=O)(=O)c1ccc(CN2CCC(C(OC(=O)Nc3cc(F)cc(F)c3)c3ccc(C(F)(F)F)cc3)CC2)cc1 (stereo not shown) [Compound 541] | 0 | 59 |
| O=C(Nc1cc(F)cc(F)c1)OC(c1ccc(C(F)(F)F)cc1)C1CCN(Cc2ccc(S(=O)(=O)NC3CCCC3)cc2)CC1 (stereo not shown) [Compound 542] | 0 | 43 |
| O=C(Nc1ccc(Cl)cc1)OC(c1ccc(C(F)(F)F)cc1)C1CCN(Cc2ccc(-c3ccccc3)cc2)CC1 (stereo not shown) [Compound 543] | 100 | 100 |
| O=C(Nc1cc(F)cc(F)c1)OC(c1ccc(C(F)(F)F)cc1)C1CCN(Cc2ccc(-c3ccccc3)cc2)CC1 (stereo not shown) [Compound 544] | 100 | 100 |
